Patent US7456191B2, “N-Aryl-sulfoximine-substituted pyrimidines as CDK-and/or VEGF inhibitors, their production and use as pharmaceutical agents” (Schering AG, priority 2005, dated 2008)

How the values were obtained:
Human Carboanhydrase-2 = Human Carboanhydrase-2 (Homo sapiens, UniProt P00918); experiment: Carboanhydrase assay; type: biochemical; conditions: 4-nitrophenyl acetate hydrolysis, 400 nm; read-out: Inhibition of Human Carboanhydrase-2 IC50
Description: 2 μl of the test compounds, dissolved in DMSO (100× the final concentration), in a concentration range of 0.03-10 μm (final), was pipetted as 4× determinations into the holes of a 96-hole microtiter plate. Holes that contained the solvent without test compounds were used as reference values (1. Holes without carboanhydrase for correction of the non-enzymatic hydrolysis of the substrate, and 2. Holes with carboanhydrase for determining the activity of the non-inhibited enzyme).
188 μl of assay buffer (10 mmol of Tris/HCl, pH 7.4, 80 mmol of NaCl), with or without 3 units/hole on carboanhydrase I or II, was pipetted into the holes of the microtiter plate.

[1] = target: T1, VEGF receptor tyrosine kinase-2 (Homo sapiens, UniProt P35968); experiment: VEGF receptor-2 kinase assay; type: biochemical; conditions: poly-(Glu4Tyr) substrate, 8 μmol ATP, 33P filter assay; read-out: VEGF-R2 IC50
T1 construct: GST; made in house; host or cells: baculovirus-infected insect cells (Sf9)
T1 sequence (P35968 20-1356): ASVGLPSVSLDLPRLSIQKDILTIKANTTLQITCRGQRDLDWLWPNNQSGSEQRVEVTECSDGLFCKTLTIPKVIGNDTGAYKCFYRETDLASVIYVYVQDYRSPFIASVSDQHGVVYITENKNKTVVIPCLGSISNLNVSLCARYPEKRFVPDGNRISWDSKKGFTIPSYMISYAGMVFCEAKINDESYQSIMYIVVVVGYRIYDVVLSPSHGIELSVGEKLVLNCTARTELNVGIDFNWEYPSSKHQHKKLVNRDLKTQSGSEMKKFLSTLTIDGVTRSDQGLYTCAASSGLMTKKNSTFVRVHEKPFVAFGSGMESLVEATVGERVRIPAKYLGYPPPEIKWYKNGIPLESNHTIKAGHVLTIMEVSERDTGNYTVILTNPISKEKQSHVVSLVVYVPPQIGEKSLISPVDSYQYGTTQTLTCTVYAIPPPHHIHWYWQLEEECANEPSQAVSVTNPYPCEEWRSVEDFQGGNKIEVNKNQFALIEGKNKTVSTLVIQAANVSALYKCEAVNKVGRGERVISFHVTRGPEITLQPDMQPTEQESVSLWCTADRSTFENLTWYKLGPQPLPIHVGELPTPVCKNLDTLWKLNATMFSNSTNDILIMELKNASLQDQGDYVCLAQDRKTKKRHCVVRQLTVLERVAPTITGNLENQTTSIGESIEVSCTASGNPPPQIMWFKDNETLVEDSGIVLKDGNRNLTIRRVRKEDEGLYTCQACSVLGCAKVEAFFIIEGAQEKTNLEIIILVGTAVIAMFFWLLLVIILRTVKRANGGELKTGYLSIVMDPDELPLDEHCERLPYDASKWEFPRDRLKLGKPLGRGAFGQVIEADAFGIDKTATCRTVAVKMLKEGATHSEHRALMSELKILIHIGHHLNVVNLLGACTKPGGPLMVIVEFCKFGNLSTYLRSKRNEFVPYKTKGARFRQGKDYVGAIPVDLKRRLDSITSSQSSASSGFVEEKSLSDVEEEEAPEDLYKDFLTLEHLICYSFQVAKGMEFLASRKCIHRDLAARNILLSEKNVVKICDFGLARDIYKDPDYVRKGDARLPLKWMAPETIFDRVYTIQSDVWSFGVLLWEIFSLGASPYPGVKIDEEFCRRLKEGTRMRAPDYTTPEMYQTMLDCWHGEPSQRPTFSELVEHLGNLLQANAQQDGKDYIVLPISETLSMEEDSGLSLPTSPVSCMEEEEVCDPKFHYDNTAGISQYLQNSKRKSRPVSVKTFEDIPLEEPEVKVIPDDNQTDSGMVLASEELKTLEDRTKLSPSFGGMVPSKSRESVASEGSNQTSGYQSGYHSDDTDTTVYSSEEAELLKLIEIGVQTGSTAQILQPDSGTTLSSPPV
Description: VEGF Receptor-2 Kinase Assay
Recombinant VEGF receptor tyrosine kinase-2 was purified as a GST fusion protein from baculovirus-infected insect cells (Sf9). Poly-(Glu4Tyr), which was used as a kinase substrate, was purchased by the Sigma Company. VEGF receptor tyrosine kinase (90 ng/measuring point) was incubated for 10 minutes at 22° C. in the presence of various concentrations of test substances (0 μm, as well as within the range of 0.001-30 μm) in 30 μl of assay buffer [40 mmol of Tris/HCl, […], 10 mmol of MgCl2, 1 mmol of MnCl2, 3 μmol of Na ortho-vanadate, 1.0 mmol of dithiothreitol, 8 μmol of adenosine trisphosphate (ATP), 27 μg/measuring point of poly-(Glu4Tyr), 0.2 μCi/measuring point of 33P-gamma ATP, 1% dimethyl sulfoxide]. The reaction was stopped by adding EDTA solution (250 mmol, pH 7.0, 10 μl/measuring point).
(§1) From each reaction batch, 10 μl was applied to P30 filter strips (Wallac Company), and non-incorporated 33P-ATP was removed by subjecting the filter strips to three washing cycles for 10 minutes each in 0.5% phosphoric acid. After the filter strips were dried for one hour at 70° C., the filter strips were covered with scintillator strips (MeltiLex™ A, Wallac Company) and baked for one hour at 90° C. The amount of incorporated 33P (substrate phosphorylation) was determined by scintillation measurement in a gamma-radiation measuring device (Wallac).

[2] = tested on: NCI-H460, human non-small-cell lung cancer cells; experiment: Proliferation assay, H460; type: cell-based; conditions: NCI-H460, 96 h, 4 days, crystal violet
Description: (§2) Cultivated human tumor cells (MCF7, hormone-independent human breast cancer cells, related to ATCC HTB22; NCI-H460, human non-small-cell lung cancer cells, ATCC HTB-177; DU 145, hormone-independent human prostate cancer cells, ATCC HTB-81; MaTu-MDR, hormone-independent, multiple pharmaceutical agent-resistant human breast cancer cells, EPO-GmbH, Berlin) were flattened out at a density of about 5000 cells/measuring point, depending on the growth rate of the respective cells, in a 96-well multititer plate in 200 μl of the corresponding growth medium. After 24 hours, the cells of one plate (zero-point plate) were colored with crystal violet (see below), while the medium of the other plates was replaced by fresh culture medium (200 μl), to which the test substances were added in various concentrations (0 μm, as well as in the range of 0.01-30 μm; the final concentration of the solvent dimethyl sulfoxide was 0.5%). The cells were incubated for 4 days in the presence of test substances. The cell proliferation was determined by coloring the cells with crystal violet: the cells were fixed by adding 20 μl/measuring point of an 11% glutaric aldehyde solution for 15 minutes at room temperature. After three washing cycles of the fixed cells with water, the plates were dried at room temperature. The cells were colored by adding 100 μl/measuring point of a 0.1% crystal violet solution (the pH was set at 3 by adding acetic acid). After three washing cycles of the colored cells with water, the plates were dried at room temperature. The dye was dissolved by adding 100 μl/measuring point of a 10% acetic acid solution. The extinction was determined by photometry at a wavelength of 595 nm. The change of cell growth, in percent, was calculated by normalization of the measured values to the extinction values of the zero-point plate (=0%) and the extinction of the untreated (0 μm) cells (=100%).

[3] = tested on: DU 145, hormone-independent human prostate cancer cells; experiment: Proliferation assay, DU145; type: cell-based; conditions: DU-145, 96 h, 4 days, crystal violet
Description: as §2

[4] = tested on: MCF7, hormone-independent human breast cancer cells; experiment: Proliferation assay, MCF7; type: cell-based; conditions: 96 h, 4 days, crystal violet
Description: as §2

CDK2/CycE = target: T2, CDK2/CycE (Homo sapiens, UniProt P24941); experiment: CDK2/CycE kinase assay; type: biochemical; conditions: histone IIIS substrate, 0.5 μm ATP, 33P filter assay
T2 construct: GST; purchased ProQinase GmbH, Freiburg; host or cells: baculovirus-infected insect cells (Sf9)
Description: Recombinant CDK2- and CycE-GST-fusion proteins, purified from baculovirus-infected insect cells (Sf9), were purchased by ProQinase GmbH, Freiburg. Histone IIIs, which was used as a kinase substrate, was purchased by the Sigma Company.
(§3) CDK2/CycE (50 ng/measuring point) was incubated for 15 minutes at 22° C. in the presence of various concentrations of test substances (0 μm, as well as within the range of 0.01-100 μm) in assay buffer [50 mmol of tris/HCl, pH 8.0, 10 mmol of MgCl2, 0.1 mmol of Na ortho-vanadate, 1.0 mmol of dithiothreitol, 0.5 μm of adenosine triphosphate (ATP), 10 μg/measuring point of histone IIIS, 0.2 μCi/measuring point of ^33P-gamma ATP, 0.05% NP40, 12.5% dimethyl sulfoxide]. The reaction was stopped by adding EDTA solution (250 mmol, pH 8.0, 14 μl/measuring point).
as §1, with “^33P-ATP” for “33P-ATP”, “^33P” for “33P”

CDK1/CycB = target: T3, CDK1/CycB (Homo sapiens, UniProt P06493); experiment: CDK1/CycB kinase assay; type: biochemical; conditions: histone IIIS substrate, 0.5 μm ATP, 33P filter assay
T3 construct: GST; purchased ProQinase GmbH, Freiburg; host or cells: baculovirus-infected insect cells (Sf9)
T3 sequence (P06493 whole entry): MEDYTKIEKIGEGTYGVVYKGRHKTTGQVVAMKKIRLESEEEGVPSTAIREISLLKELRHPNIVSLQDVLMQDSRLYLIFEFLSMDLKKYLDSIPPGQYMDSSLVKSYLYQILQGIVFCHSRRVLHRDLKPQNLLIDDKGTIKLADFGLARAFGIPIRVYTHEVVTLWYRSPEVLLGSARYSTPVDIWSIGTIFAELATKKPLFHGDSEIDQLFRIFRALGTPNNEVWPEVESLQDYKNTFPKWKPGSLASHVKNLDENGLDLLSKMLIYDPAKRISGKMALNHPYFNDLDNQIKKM
T3 sequence (P14635 whole entry partner): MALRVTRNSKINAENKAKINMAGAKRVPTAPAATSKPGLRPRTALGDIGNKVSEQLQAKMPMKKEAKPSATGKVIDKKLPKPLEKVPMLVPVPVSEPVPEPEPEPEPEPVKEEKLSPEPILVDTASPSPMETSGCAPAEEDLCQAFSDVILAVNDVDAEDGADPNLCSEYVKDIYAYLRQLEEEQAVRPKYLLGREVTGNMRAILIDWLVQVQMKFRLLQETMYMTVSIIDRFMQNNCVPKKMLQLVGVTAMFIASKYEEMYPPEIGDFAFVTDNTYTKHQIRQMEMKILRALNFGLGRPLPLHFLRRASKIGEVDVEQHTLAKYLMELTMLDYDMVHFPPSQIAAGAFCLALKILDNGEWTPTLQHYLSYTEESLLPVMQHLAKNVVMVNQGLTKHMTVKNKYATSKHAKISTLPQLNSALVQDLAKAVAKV
Description: Recombinant CDK1- and CycB-GST-fusion proteins, purified from baculovirus-infected insect cells (Sf9), were purchased from ProQinase GmbH, Freiburg. Histone IIIS, used as a kinase substrate, is available commercially from the Sigma Company.
as §3, with “CDK1/CycB (200” for “CDK2/CycE (50”
as §1

MaTu-ADR = experiment: Proliferation assay, MaTu-ADR; type: cell-based; conditions: Homo sapiens, 96 h; MaTu-ADR cells, 4 days, crystal violet

Row | IC50 (Human Carboanhydrase-2) [nM] | IC50 [1] [nM] | IC50 [2] [nM] | IC50 [3] [nM] | IC50 [4] [nM] | IC50 (CDK2/CycE) [nM] | IC50 (CDK1/CycB) [nM] | Structure (SMILES) | IC50 (MaTu-ADR) [nM]
1 | > 10000 | 74 | 500 | 600 | 400 | 27 | 130 | C[C@@H](Nc1nc(Nc2ccc(N=S(C)(C)=O)cc2)ncc1Br)C(C)(C)O [Example 1, N-{4-[(5-Bromo-4-{[(R)-2-hydroxy-1,2-dimethylpropyl]amino}-pyrimidin-2-yl)amino]phenyl}-S,S-dimethylsulfoximide] | 800
2 | > 10000 | 27 | 800 | 1000 | 600 | 11 | 32 | C[C@@H](O)[C@@H](C)Nc1nc(Nc2ccc(N=S(C)(C)=O)cc2)ncc1Br [Example 2, N-{4-[(5-Bromo-4-{[(1R,2R)-2-hydroxy-1-methylpropyl]amino}-pyrimidin-2-yl)amino]phenyl}-S,S-dimethylsulfoximide] | 900
3 | > 10000 | 44 | 700 | 1000 | 300 | 12 | 28 | C[C@@H](O)[C@@H](C)Oc1nc(Nc2ccc(N=S(C)(C)=O)cc2)ncc1Br [Example 3, N-{4-[(5-Bromo-4-{[(1R,2R)-2-hydroxy-1-methylpropyl]oxy}-pyrimidin-2-yl)amino]phenyl}S,S-dimethylsulfoximide] | 500
4 |  | 88 |  |  | 2200 | 200 |  | CC(C)[C@H](CO)Nc1nc(Nc2ccc(N=S(C)(C)=O)cc2)ncc1I [Example 4, N-{4-[(4-{[(R)-1-(Hydroxymethyl)-2-methylpropyl]amino}-5-iodopyrimidin-2-yl)amino]phenyl}-S,S-dimethylsulfoximide] | 
5 |  | 180 |  |  | 700 | 340 | 490 | Cc1cccc(Nc2nc(Nc3ccc(N=S(C)(C)=O)cc3)ncc2Br)n1 [Example 5, N-[4-({5-Bromo-4-[(6-methyl-2-pyridyl)amino]pyrimidin-2-yl}amino)phenyl]-S,S-dimethylsulfoximide] | 
6 |  | 73 | 400 | 300 | 500 |  |  | CS(C)(=O)=Nc1ccc(Nc2ncc(Br)c(Nc3ccccc3)n2)cc1 [Example 6, N-{4-[(4-Anilino-5-bromopyrimidin-2-yl)amino]phenyl}-S,S-dimethylsulfoximide] | 300
7 |  | 200 |  |  |  |  |  | C[C@H](CO)Nc1nc(Nc2ccc(N=S(C)(C)=O)cc2)ncc1[N+](=O)[O-] [Example 7, N-{4-[(4-{[(R)-2-Hydroxy-1-methylethyl]amino}-5-nitropyrimidin-2-yl)amino]phenyl}-S,S-dimethylsulfoximide] | 
8 |  | 140 |  |  |  | 260 | 670 | C#CCOc1nc(Nc2ccc(N=S(C)(C)=O)cc2)ncc1C(F)(F)F [Example 9, S,S-Dimethyl-N-(4-{[4-(prop-2-yn-1-yloxy)-5-(trifluoromethyl)pyrimidin-2-yl]amino}phenyl)sulfoximide] | 
9 |  | 160 |  |  |  | 220 | 400 | C#CCNc1nc(Nc2ccc(N=S(C)(C)=O)cc2)ncc1C(F)(F)F [Example 10, S,S-Dimethyl-N-(4-{[4-(prop-2-yn-1-ylamino)-5-(trifluoromethyl)pyrimidin-2-yl]amino}phenyl)sulfoximide] | 
10 |  | 54 |  |  |  | 680 |  | CS(C)(=O)=Nc1ccc(Nc2ncc(Br)c(NC3(CO)CCCC3)n2)cc1 [Example 11, N-{4-[(5-Bromo-4-{[1-(hydroxymethyl)cyclopentyl]amino}pyrimidin-2-yl)amino]phenyl}-S,S-dimethylsulfoximide] | 
11 |  | 280 |  |  |  | 460 |  | CS(C)(=O)=Nc1ccc(Nc2ncc(Br)c(N[C@H]3CCCC[C@@H]3O)n2)cc1 [Example 12, N-{4-[(5-Bromo-4-{[(1S,2S)-2-hydroxycyclohexyl]amino}pyrimidin-2-yl)amino]phenyl}S,S-dimethylsulfoximide] | 
12 |  | 42 |  |  |  |  |  | CS(C)(=O)=Nc1ccc(Nc2ncc(Br)c(N[C@@H]3CCOC3)n2)cc1 [Example 13, N-[4-({5-Bromo-4-[(R)-(2,3,4,5-tetrahydrofuran-3-yl)amino]pyrimidin-2-yl}amino)phenyl]-S,S-dimethylsulfoximide] | 
